Experimental data reported in US20240343712A1, “SOLID-STATE FORMS OF 2-(3-(4-(1H-INDAZOL-5-YLAMINO)QUINAZOLIN-2-YL)PHENOXY)-N-ISOPROPYLACETAMIDE METHANE SULFONIC ACID SALT” (Sandoz AG, priority 2021, published 2024).

Columns and labels:
[1] = Thermogravimetric analysis (TGA); type: physicochemical; details: for stability against temperature stress: DSC and TGA, Examples 7 and 8
Method: TGA was performed on a Mettler TGA/DSC 1 instrument. The samples (5.15 mg Form I, 5.69 Form II, 3.97 mg Form HyA, and 8.55 mg Form HyB) were each heated in a 100 microliter aluminium pan closed with an aluminium lid from 25 to 300° C. at a rate of 10 K/min. The lid was automatically pierced at the beginning of the measurement. Nitrogen (purge rate 50 mL/min) was used as purge gas.

[2] = Gravimetric moisture sorption (GMS); type: physicochemical; details: (25 ± 0.1)° C.; for Comment (hygroscopicity / behaviour upon moisture contact) / Δm (0-80% RH): 0-80% RH; for Δm (0-80% RH): gravimetric moisture sorption
Method: Moisture sorption isotherms were recorded with an SPSx-1μ moisture sorption analyzer (ProUmid, Ulm). The measurement cycle was started at ambient relative humidity (RH) of 40%. Relative humidity was then decreased to 5% RH in 5% steps, followed by a further decrease to 3% RH and to 0% RH. Afterwards RH was increased from 0% to 90% in a sorption cycle and decreased to 0% in a desorption cycle in 5% steps. Finally RH was increased from 0 to 40% in 5% steps.
The time per step was set to a minimum of 2 hours and a maximum of 6 hours. If an equilibrium condition with a constant mass of +0.01% within 1 hour was reached before the maximum time for all examined samples the sequential humidity step was applied before the maximum time of 6 hours. If no equilibrium was achieved the consecutive humidity step was applied after the maximum time of 6 hours. The temperature was 25±0.1° C.

Structure (SMILES) | stability against temperature stress [1] | Comment (hygroscopicity / behaviour upon moisture contact) [2] | Δm (0-80% RH) [2] | other results
CC(C)NC(=O)COc1cccc(-c2nc(Nc3ccc4[nH]ncc4c3)c3ccccc3n2)c1.CS(=O)(=O)O [Mesylate Form I, 2-(3-(4-(1H-indazol-5-ylamino)quinazolin-2-yl)phenoxy)-N-isopropylacetamide methane sulfonic acid] | stable against temperature stress | Slightly hygroscopic | +1.9 w-% | Δm (0-250° C.), TGA mass loss ([1]; 0-250° C., 10 K/min, nitrogen): Δm (0-250° C.) = 0.87%, anhydrate; Comment (hygroscopicity / behaviour upon moisture contact) ([2]; listed as belumosudil mesylate Form I): only slightly hygroscopic
CC(C)NC(=O)COc1cccc(-c2nc(Nc3ccc4[nH]ncc4c3)c3ccccc3n2)c1.CS(=O)(=O)O [Mesylate Form HyB, 2-(3-(4-(1H-indazol-5-ylamino)quinazolin-2-yl)phenoxy)-N-isopropylacetamide methane sulfonic acid] |  |  |  | Δm (0-140° C.), TGA mass loss ([1]; 0-140° C., 10 K/min, nitrogen): Δm (0-140° C.) = 3.19%, corresponds to a monohydrate
CC(C)NC(=O)COc1cccc(-c2nc(Nc3ccc4[nH]ncc4c3)c3ccccc3n2)c1.CS(=O)(=O)O [Mesylate Form HyA, 2-(3-(4-(1H-indazol-5-ylamino)quinazolin-2-yl)phenoxy)-N-isopropylacetamide methane sulfonic acid] |  |  |  | Δm (0-130° C.), TGA mass loss ([1]; 0-130° C., 10 K/min, nitrogen): Δm (0-130° C.) = 5.97%, corresponds to a dihydrate; Relative humidity of dehydration (release of crystal water) [2]: Dehydration below 3% RH

More lines, main results first:

stability against temperature stress [1] | Comment (hygroscopicity / behaviour upon moisture contact) [2] | Δm (0-80% RH) [2] | Structure (SMILES) | other results
stable against temperature stress | Slightly hygroscopic | +1.4 w-% | CC(C)NC(=O)COc1cccc(-c2nc(Nc3ccc4[nH]ncc4c3)c3ccccc3n2)c1.CS(=O)(=O)O [Mesylate Form II, 2-(3-(4-(1H-indazol-5-ylamino)quinazolin-2-yl)phenoxy)-N-isopropylacetamide methane sulfonic acid] | Δm (0-100° C.), TGA mass loss ([1]; 0-100° C., 10 K/min, nitrogen): Δm (0-100° C.) = 0.32%, anhydrate; Comment (hygroscopicity / behaviour upon moisture contact) ([2]; listed as Form II): only slightly hygroscopic
 | Very hygroscopic | +21.2 w % w-% | CC(C)NC(=O)COc1cccc(-c2nc(Nc3ccc4[nH]ncc4c3)c3ccccc3n2)c1.CS(=O)(=O)O [Amorphous mesylate, 2-(3-(4-(1H-indazol-5-ylamino)quinazolin-2-yl)phenoxy)-N-isopropylacetamide methane sulfonic acid] | Comment (hygroscopicity / behaviour upon moisture contact) ([2]; listed as amorphous belumosudil mesylate): moderately hygroscopic
